Test results as given in the supplement of paper PMC10307832.

Compound: CC(C)CCN1c2nc(Nc3cc(F)c(O)c(F)c3)ncc2N(C)C(=O)C1C [BI-D1870] + CC(=O)c1c(C)c2cnc(Nc3ccc(N4CCNCC4)cn3)nc2n(C2CCCC2)c1=O [Palbociclib] (partner 0.5 µM)
Assay: relative viability (nuclei count vs DMSO), 5 days (fraction); higher = more cells survive
Conditions: first compound 0.04 µM
Procedure, shortened: (§1)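 Each reported value is a median over duplicate plates. It expresses relative viability: treated-well nuclei count divided by vehicle-well nuclei count. Lung cancer cell lines in 1536-well plates were dosed by pin tool a day after seeding, alone with one drug or with a fixed anchor-drug dose plus five library-drug doses (not always all listed) in √10 steps, and nuclei were counted after 5 days.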

Cell Line | relative viability
NCI-H2342 | 0.508
NCI-H727 | 0.594
NCI-H1650 | 0.372
NCI-H1993 | 0.642
SW 1573 | 0.435
NCI-H838 | 0.243
LCLC-103H | 0.475
NCI-H520 | 0.253
NCI-H2126 | 0.369
EMC-BAC-2 | 0.555
NCI-H2085 | 0.453
HCC-366 | 0.422
NCI-H1666 | 0.665
LK-2 | 0.803
NCI-H2087 | 0.239
NCI-H1648 | 0.285
SK-MES-1 | 0.342
H3255 | 0.335
COR-L23 | 0.281
COR-L 105 | 0.412
LOU-NH91 | 0.497
ChaGo-K-1 | 0.907
NCI-H2170 | 0.455
NCI-H2405 | 0.58
HOP-62 | 0.508
HCC-44 | 0.966
NCI-H522 | 1.03
LU99A | 0.431
BEN | 0.486
HARA | 0.219

Same assay, conditions: first compound 0.1265 µM

Cell Line | relative viability
NCI-H2342 | 0.511
NCI-H727 | 0.579
NCI-H1650 | 0.316
NCI-H1993 | 0.583
SW 1573 | 0.347
NCI-H838 | 0.236
LCLC-103H | 0.471
NCI-H520 | 0.218
NCI-H2126 | 0.4
EMC-BAC-2 | 0.505
NCI-H2085 | 0.475
HCC-366 | 0.404
NCI-H1666 | 0.591
LK-2 | 0.842
NCI-H2087 | 0.2
NCI-H1648 | 0.273
SK-MES-1 | 0.318
H3255 | 0.311
COR-L23 | 0.24
COR-L 105 | 0.395
LOU-NH91 | 0.57
ChaGo-K-1 | 0.876
NCI-H2170 | 0.38
NCI-H2405 | 0.525
HOP-62 | 0.419
HCC-44 | 0.901
NCI-H522 | 1.06
LU99A | 0.363
BEN | 0.45
HARA | 0.234

Same assay, conditions: first compound 0.4 µM

Cell Line | relative viability
NCI-H2342 | 0.528
NCI-H727 | 0.648
NCI-H1650 | 0.338
NCI-H1993 | 0.717
SW 1573 | 0.332
NCI-H838 | 0.232
LCLC-103H | 0.439
NCI-H520 | 0.217
NCI-H2126 | 0.38
EMC-BAC-2 | 0.511
NCI-H2085 | 0.474
HCC-366 | 0.329
NCI-H1666 | 0.661
LK-2 | 0.598
NCI-H2087 | 0.265
SK-MES-1 | 0.314
H3255 | 0.325
COR-L23 | 0.315
COR-L 105 | 0.407
LOU-NH91 | 0.499
ChaGo-K-1 | 0.887
NCI-H2170 | 0.423
NCI-H2405 | 0.523
HOP-62 | 0.496
HCC-44 | 0.919
NCI-H522 | 0.943
LU99A | 0.387
BEN | 0.472
HARA | 0.263

Same assay, conditions: first compound 1.265 µM

Cell Line | relative viability
NCI-H2342 | 0.528
NCI-H727 | 0.64
NCI-H1650 | 0.321
NCI-H1993 | 0.691
SW 1573 | 0.25
NCI-H838 | 0.262
LCLC-103H | 0.409
NCI-H520 | 0.224
NCI-H2126 | 0.33
EMC-BAC-2 | 0.544
NCI-H2085 | 0.456
HCC-366 | 0.445
NCI-H1666 | 0.63
LK-2 | 0.701
NCI-H2087 | 0.196
NCI-H1648 | 0.308
SK-MES-1 | 0.285
H3255 | 0.335
COR-L23 | 0.257
COR-L 105 | 0.41
LOU-NH91 | 0.529
ChaGo-K-1 | 0.978
NCI-H2170 | 0.447
NCI-H2405 | 0.565
HOP-62 | 0.522
HCC-44 | 1.01
NCI-H522 | 0.975
LU99A | 0.37
BEN | 0.46
HARA | 0.272

Same assay, conditions: first compound 4 µM

Cell Line | relative viability
NCI-H2342 | 0.559
NCI-H727 | 0.66
NCI-H1650 | 0.335
NCI-H1993 | 0.573
SW 1573 | 0.17
NCI-H838 | 0.209
LCLC-103H | 0.379
NCI-H520 | 0.13
NCI-H2126 | 0.357
EMC-BAC-2 | 0.483
NCI-H2085 | 0.355
HCC-366 | 0.376
NCI-H1666 | 0.619
LK-2 | 0.672
NCI-H2087 | 0.208
NCI-H1648 | 0.259
SK-MES-1 | 0.266
H3255 | 0.321
COR-L23 | 0.278
COR-L 105 | 0.425
LOU-NH91 | 0.509
ChaGo-K-1 | 0.949
NCI-H2170 | 0.398
NCI-H2405 | 0.49
HOP-62 | 0.405
HCC-44 | 0.946
NCI-H522 | 0.788
LU99A | 0.331
BEN | 0.423
HARA | 0.23

Compound: CC(C)CCN1c2nc(Nc3cc(F)c(O)c(F)c3)ncc2N(C)C(=O)C1C [BI-D1870] + COc1cccc2cc(-c3nc([C@H]4CC[C@H](C(=O)O)CC4)n4ncnc(N)c34)[nH]c12 [OSI-027] (partner 0.5 µM)
Assay: as above
Conditions: first compound 0.04 µM
Procedure, shortened: as §1

Cell Line | relative viability
NCI-H2342 | 0.592
NCI-H1623 | 0.389
NCI-H727 | 0.559
NCI-H1650 | 0.653
NCI-H1993 | 0.481
SW 1573 | 0.598
NCI-H838 | 0.378
LCLC-103H | 0.387
NCI-H520 | 0.226
NCI-H2126 | 0.74
